The source of these data is patent US11492335B2, “Aryl or heteroaryl triazolone derivatives or salts thereof, or pharmaceutical compositions comprising the same” (YUHAN CORPORATION, priority 2018, dated 2022).

SMILES strings stand for the structures. Structures can show the parent of a compound that is named as a salt. Where two headings read alike, the source gives them in different places. A value given as a limit tells only on which side of the number the result lay.

Format in all cases: biochemical
For one test, the target named is T1, recombinant human VAP-1 (Homo sapiens, UniProt Q16853).
T1 construct: purchased R&D systems
T1 sequence (Q16853 1-763): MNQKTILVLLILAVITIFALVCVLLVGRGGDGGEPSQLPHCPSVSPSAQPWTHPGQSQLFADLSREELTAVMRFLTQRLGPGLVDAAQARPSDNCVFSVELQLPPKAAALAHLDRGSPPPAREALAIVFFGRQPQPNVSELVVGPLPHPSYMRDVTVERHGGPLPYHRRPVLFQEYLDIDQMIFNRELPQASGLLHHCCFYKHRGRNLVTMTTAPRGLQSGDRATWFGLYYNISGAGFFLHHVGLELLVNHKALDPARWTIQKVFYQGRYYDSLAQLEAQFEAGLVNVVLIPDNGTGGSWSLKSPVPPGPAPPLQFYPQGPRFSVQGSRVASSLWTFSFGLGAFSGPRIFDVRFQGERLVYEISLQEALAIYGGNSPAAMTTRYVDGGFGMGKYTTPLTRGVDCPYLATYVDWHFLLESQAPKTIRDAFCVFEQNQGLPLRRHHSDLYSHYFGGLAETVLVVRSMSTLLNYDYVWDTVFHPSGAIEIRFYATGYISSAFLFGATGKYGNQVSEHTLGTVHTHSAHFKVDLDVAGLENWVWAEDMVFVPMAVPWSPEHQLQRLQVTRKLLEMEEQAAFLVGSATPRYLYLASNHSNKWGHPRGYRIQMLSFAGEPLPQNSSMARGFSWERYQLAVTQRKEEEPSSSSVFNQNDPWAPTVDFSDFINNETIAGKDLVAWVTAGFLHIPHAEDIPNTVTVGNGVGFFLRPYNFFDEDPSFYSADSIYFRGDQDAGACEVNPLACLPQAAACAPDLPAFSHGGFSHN
As to the kind of experiment: Activity on recombinant human VAP-1, Amplex Red HRP-coupled hydrogen peroxide assay, benzylamine substrate. To be noted: recombinant human VAP-1, benzylamine substrate, read-out: Inhibitory Activity (IC50, nM) human VAP-1. Summed up:
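Compounds were preincubated with purified enzyme in 50 mM sodium phosphate pH 7.4 at 37 °C for 30 min, then 200 uM Amplex Red, 1 mM benzylamine and 1 U/mL HRP were added. Resorufin fluorescence (ex 544/em 590 nm) was followed over 1-2 h; IC50 came from 4-parameter fits of signal-rate inhibition.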

Test [1] addresses T2, recombinant human MAO-A (monoamine oxidase-A) (Homo sapiens, UniProt P21397).
T2 construct: purchased Sigma-Aldrich
T2 sequence (P21397 1-527): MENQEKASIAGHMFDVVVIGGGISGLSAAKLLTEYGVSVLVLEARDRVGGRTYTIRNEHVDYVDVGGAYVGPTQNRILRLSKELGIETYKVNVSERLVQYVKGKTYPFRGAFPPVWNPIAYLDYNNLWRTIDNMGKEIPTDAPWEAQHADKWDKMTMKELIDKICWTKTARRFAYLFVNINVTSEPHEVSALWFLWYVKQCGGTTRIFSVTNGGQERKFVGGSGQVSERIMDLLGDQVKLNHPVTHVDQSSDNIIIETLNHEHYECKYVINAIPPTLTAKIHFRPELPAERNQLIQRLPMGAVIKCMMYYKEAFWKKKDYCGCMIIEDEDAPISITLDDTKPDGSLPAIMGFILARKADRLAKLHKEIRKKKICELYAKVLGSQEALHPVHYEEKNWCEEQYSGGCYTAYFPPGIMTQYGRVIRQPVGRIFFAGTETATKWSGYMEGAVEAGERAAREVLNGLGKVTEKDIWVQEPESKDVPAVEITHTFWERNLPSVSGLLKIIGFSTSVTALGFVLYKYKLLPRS
As to the kind of experiment: Activity on recombinant human MAO-A, Amplex Red method, 0.5 mM tyramine substrate. As to conditions: read-out: Inhibitory Activity (IC50, nM) MAO-A. Summed up: (§1)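 8-point, 1:3 dose-response, four-parameter logistic IC50 from reduction in fluorescence rate versus DMSO control. HRP/Amplex Red detection of H2O2 (ex 544, em 590 nm) after 30 min, 37 °C compound–enzyme preincubation in pH 7.4 phosphate buffer. MAO-A substrate: 0.5 mM tyramine; MAO-B: 1 mM benzylamine.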

Test [2] has as its target T3, recombinant human MAO-B (monoamine oxidase-B) (Homo sapiens, UniProt P27338).
T3 construct: purchased Sigma-Aldrich
T3 sequence (P27338 1-520): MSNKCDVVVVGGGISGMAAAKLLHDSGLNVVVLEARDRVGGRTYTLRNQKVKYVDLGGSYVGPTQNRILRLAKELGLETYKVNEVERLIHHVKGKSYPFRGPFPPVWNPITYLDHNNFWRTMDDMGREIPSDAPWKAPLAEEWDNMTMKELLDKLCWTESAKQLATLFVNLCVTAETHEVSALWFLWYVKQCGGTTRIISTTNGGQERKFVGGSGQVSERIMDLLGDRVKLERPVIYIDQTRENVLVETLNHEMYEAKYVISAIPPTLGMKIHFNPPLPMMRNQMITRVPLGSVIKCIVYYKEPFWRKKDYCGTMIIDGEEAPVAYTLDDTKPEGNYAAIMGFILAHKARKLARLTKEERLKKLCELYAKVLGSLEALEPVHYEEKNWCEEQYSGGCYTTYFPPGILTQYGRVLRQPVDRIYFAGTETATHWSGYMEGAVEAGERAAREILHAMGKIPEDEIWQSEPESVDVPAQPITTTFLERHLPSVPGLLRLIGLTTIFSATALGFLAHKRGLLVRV
As to the kind of experiment: Activity on recombinant human MAO-B, Amplex Red method, 1 mM benzylamine substrate. To be noted: read-out: Inhibitory Activity (IC50, nM) MAO-B. Summed up: as §1

Test [3] has as its target T4, recombinant human DAO (diamine oxidase) (Homo sapiens, UniProt P19801).
T4 construct: purchased R&D systems
T4 sequence (P19801 20-751): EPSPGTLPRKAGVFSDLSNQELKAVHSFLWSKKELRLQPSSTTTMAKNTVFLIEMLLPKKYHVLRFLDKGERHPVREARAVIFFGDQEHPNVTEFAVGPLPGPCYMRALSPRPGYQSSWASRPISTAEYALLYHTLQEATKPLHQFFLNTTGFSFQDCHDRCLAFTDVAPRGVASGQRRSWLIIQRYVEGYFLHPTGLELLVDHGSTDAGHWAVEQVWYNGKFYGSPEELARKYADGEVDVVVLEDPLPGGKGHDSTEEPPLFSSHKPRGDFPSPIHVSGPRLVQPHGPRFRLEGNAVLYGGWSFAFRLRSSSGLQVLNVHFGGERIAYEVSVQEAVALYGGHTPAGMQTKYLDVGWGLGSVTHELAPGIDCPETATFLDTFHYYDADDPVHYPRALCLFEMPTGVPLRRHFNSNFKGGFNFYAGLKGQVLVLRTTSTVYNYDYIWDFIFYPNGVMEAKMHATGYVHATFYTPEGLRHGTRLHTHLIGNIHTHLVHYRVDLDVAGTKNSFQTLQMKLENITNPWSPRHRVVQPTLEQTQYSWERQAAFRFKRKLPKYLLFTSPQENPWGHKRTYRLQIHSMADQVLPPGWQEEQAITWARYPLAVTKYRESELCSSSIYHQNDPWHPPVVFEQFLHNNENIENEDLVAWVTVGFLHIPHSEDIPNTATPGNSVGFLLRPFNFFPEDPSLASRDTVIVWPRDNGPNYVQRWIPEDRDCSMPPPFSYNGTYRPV
As to the kind of experiment: Activity on recombinant human DAO, Amplex Red method, 1 mM putrescine substrate. As to conditions: recombinant human DAO, read-out: Inhibitory Activity (IC50, nM) DAO. Summed up: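 Inhibition of recombinant human DAO (diamine oxidase, R&D systems) was assessed with the Amplex Red Hydrogen Peroxide Assay Kit. Hydrogen peroxide produced from 1 mM putrescine was detected through an HRP-coupled reaction that converts Amplex Red into fluorescent resorufin, read at 544 nm excitation and 590 nm emission. IC50 values came from four-parameter logistic fits in GraphPad Prism.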

Where [4] appears, read: 1 mM putrescine, * = between 10 and 100 nM, ** = between 300 and 1000 nM.

Take `NC/C(=C\F)Cn1ncn(-c2ncc(-c3ccc(-c4nnc[nH]4)cc3)s2)c1=O` [Example 227, 2-[(2E)-2-(aminomethyl)-3-fluoroprop-2-en-1-yl]-4-{5-[4-(4H-1,2,4-triazol-3-yl)phenyl]-1,3-thiazol-2-yl}-2,4-dihydro-3H-1,2,4-triazol-3-one]: the IC50 was 0.61 nM at recombinant human VAP-1, above 100000 nM in test [1] (0.5 mM tyramine substrate), 164 nM in test [2] (1 mM benzylamine substrate) and 0.24 nM in test [3] (1 mM putrescine substrate).

As for `NC/C(=C\F)Cn1ncn(-c2cccc(C#Cc3ccc4c(c3)NCCO4)n2)c1=O` [Example 250, 2-[(E)-2-(aminomethyl)-3-fluoro-allyl]-4-[6-[2-(3,4-dihydro-2H-1,4-benzoxazin-6-yl)ethynyl]-2-pyridyl]-1,2,4-triazol-3-one], the IC50 at recombinant human VAP-1 is 0.7 nM; in test [1] (0.5 mM tyramine substrate), above 100000 nM; in test [2] (1 mM benzylamine substrate), above 10000 nM; in test [3] (1 mM putrescine substrate), 74 nM.

`NC/C(=C\F)Cn1ncn(-c2cccc(-c3ccc(N4CCOCC4)nc3)n2)c1=O` [Example 189, 2-[(2E)-2-(aminomethyl)-3-fluoroprop-2-en-1-yl]-4-[6′-(morpholin-4-yl)-2,3′-bipyridin-6-yl]-2,4-dihydro-3H-1,2,4-triazol-3-one]: the IC50 on recombinant human VAP-1 is 0.53 nM; in test [1] (0.5 mM tyramine substrate), above 100000 nM; in test [2] (1 mM benzylamine substrate), above 10000 nM; in test [3] (1 mM putrescine substrate) it was below 30 nM.

As to `Cc1cc(-c2ccc(C(=O)N3CCOCC3)cc2)cnc1-n1cnn(C/C(=C/F)CN)c1=O` [Example 146, 2-[(2E)-2-(aminomethyl)-3-fluoroprop-2-en-1-yl]-4-{3-methyl-5-[4-(morpholin-4-ylcarbonyl)phenyl]pyridin-2-yl}-2,4-dihydro-3H-1,2,4-triazol-3-one hydrochloride], the IC50 at recombinant human VAP-1 (30 min preincubation at 37° C.) is 0.7 nM; in test [1] (0.5 mM tyramine) it was above 100000 nM; in test [2] (1 mM benzylamine) it was above 10000 nM; in test [3] (setting [4]), 17000 nM.

For `NC/C(=C\F)Cn1ncn(-c2ccc(Br)cc2)c1=O` [Example 2, 2-[(2E)-2-(aminomethyl)-3-fluoroprop-2-en-1-yl]-4-(4-bromophenyl)-2,4-dihydro-3H-1,2,4-triazol-3-one], the IC50 was found to be 0.9 nM on recombinant human VAP-1 (30 min preincubation at 37° C.), 2900 nM in test [1] (0.5 mM tyramine), 86 nM in test [2] (1 mM benzylamine) and 120 nM in test [3] (setting [4]).

`NC/C(=C\F)Cn1ncn(-c2cccc(-c3ccc4c(c3)OCCO4)n2)c1=O` [Example 194, 2-[(2E)-2-(aminomethyl)-3-fluoroprop-2-en-1-yl]-4-[6-(2,3-dihydro-1,4-benzodioxin-6-yl)pyridin-2-yl]-2,4-dihydro-3H-1,2,4-triazol-3-one]: the IC50 on recombinant human VAP-1 was 1.2 nM; in test [1] (0.5 mM tyramine substrate), above 100000 nM; in test [2] (1 mM benzylamine substrate), 2710 nM; in test [3] (1 mM putrescine substrate) it was 2.9 nM.

Turning to `Cc1cc(-n2cnn(C/C(=C\F)CN)c2=O)ccc1Br` [Example 15, 2-[(2Z)-2-(aminomethyl)-3-fluoroprop-2-en-1-yl]-4-(4-bromo-3-methylphenyl)-2,4-dihydro-3H-1,2,4-triazol-3-one], the IC50 at recombinant human VAP-1 (30 min preincubation at 37° C.) amounted to 2.2 nM; in test [1] (0.5 mM tyramine), 710 nM; in test [2] (1 mM benzylamine), 9.8 nM; in test [3] (setting [4]) it was 85 nM.

As to `NC/C(=C\F)Cn1ncn(-c2cccc(-c3cccnc3)c2)c1=O` [Example 82, 2-[(2E)-2-(aminomethyl)-3-fluoroprop-2-en-1-yl]-4-[3-(pyridin-3-yl)phenyl]-2,4-dihydro-3H-1,2,4-triazol-3-one hydrochloride], the IC50 at recombinant human VAP-1 (30 min preincubation at 37° C.) is 0.8 nM; in test [1] (0.5 mM tyramine) it was above 100000 nM; in test [2] (1 mM benzylamine), 18000 nM; in test [3] (setting [4]), below 100 nM.

For `Cc1cc(-c2cc(C)c3c(c2)CCC(=O)N3)cnc1-n1cnn(C/C(=C/F)CN)c1=O` [Example 154, 6-(6-{1-[(2E)-2-(aminomethyl)-3-fluoroprop-2-en-1-yl]-5-oxo-1,5-dihydro-4H-1,2,4-triazol-4-yl}-5-methylpyridin-3-yl)-8-methyl-3,4-dihydroquinolin-2(1H)-one hydrochloride], the IC50 was 0.3 nM on recombinant human VAP-1, above 100000 nM in test [1] (0.5 mM tyramine substrate), 3000 nM in test [2] (1 mM benzylamine substrate) and 190 nM in test [3] (1 mM putrescine substrate).

As to `Cc1ccc(-c2cc(C)c3c(c2)CCC(=O)N3)nc1-n1cnn(C/C(=C/F)CN)c1=O` [Example 215, 6-(6-{1-[(2E)-2-(aminomethyl)-3-fluoroprop-2-en-1-yl]-5-oxo-1,5-dihydro-4H-1,2,4-triazol-4-yl}-5-methylpyridin-2-yl)-8-methyl-3,4-dihydroquinolin-2(1H)-one hydrochloride], the IC50 at recombinant human VAP-1 is 14 nM; in test [1] (0.5 mM tyramine substrate), 96000 nM; in test [2] (1 mM benzylamine substrate) it was 3500 nM; in test [3] (1 mM putrescine substrate) it was 290 nM.
